For this assay, the target named is T1, human NatA (Homo sapiens, UniProt P41227+Q9BXJ9).
T1 construct: Human NatA (hNatA) full-length (FL) was cloned; made in house; host or cells: Tnao38 insect cells (baculovirus, pFL vector)
T1 sequence (P41227 1-235): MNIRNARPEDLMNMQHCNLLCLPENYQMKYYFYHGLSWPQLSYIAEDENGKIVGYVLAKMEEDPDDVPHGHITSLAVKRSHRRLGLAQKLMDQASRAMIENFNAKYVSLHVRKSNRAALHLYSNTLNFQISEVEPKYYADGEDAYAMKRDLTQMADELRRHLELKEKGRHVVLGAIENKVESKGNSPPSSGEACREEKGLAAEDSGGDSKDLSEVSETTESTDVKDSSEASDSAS
T1 sequence (Q9BXJ9 1-866 partner): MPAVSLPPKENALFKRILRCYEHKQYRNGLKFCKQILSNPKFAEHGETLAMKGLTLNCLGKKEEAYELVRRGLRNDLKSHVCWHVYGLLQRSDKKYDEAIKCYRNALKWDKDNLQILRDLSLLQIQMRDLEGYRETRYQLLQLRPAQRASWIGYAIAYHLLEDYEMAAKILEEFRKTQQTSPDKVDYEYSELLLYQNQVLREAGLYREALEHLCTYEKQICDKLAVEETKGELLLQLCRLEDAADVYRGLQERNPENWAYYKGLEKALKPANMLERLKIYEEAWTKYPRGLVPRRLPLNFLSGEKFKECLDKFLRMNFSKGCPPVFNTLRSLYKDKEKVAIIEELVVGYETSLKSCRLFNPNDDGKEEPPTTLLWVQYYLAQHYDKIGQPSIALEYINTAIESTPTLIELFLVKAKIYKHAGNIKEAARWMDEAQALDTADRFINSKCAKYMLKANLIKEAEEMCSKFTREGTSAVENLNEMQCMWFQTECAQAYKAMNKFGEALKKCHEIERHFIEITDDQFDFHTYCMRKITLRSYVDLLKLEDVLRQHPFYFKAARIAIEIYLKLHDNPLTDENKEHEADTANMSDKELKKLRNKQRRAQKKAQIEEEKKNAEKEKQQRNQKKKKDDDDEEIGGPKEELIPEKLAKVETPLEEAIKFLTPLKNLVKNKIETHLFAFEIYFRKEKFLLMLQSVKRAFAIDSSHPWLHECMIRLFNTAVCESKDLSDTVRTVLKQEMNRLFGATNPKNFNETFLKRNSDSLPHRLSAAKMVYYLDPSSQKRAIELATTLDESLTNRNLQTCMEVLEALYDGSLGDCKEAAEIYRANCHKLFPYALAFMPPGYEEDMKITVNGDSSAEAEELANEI
Nature of the assay: In vitro Nt-acetylation assay (NatA, CPM fluorescence). It counts as biochemical. Here is the method: Gly-starting proteins can be substrates of the Nt-acetyltransferase NatA[3],[21]. Having established direct DCAF10 binding to Ac-Gly N-termini, we next asked whether SFK N-termini are bona fide NatA substrates. We developed an in vitro Nt-acetylation assay comprising purified NatA, acetyl-CoA (Ac-CoA), and the peptide of interest (Fig. 3a, b)[33]. Acetyl-group transfer was assessed using CPM [7-(diethylamino)−3-(4′-maleimidophenyl)−4-methylcoumarin], which reacts specifically with free thiol groups to produce a highly fluorescent product (excitation: 390 nm; emission: 479 nm), allowing detection of CoA production after acetyl-group transfer to the peptide (Supplementary Fig. 4e). We optimized the conditions to determine Michaelis–Menten kinetics for NatA-mediated Nt-acetylation with a target peptide ([…]) previously used for NatA assays and co-crystallization (Supplementary Fig. 4f)[34]. […] Likely, this was due to a Km even higher than that of Src, and implying that the peptide concentrations in the assay might have been insufficient for the reaction to proceed with an appreciable rate. […] Negative controls (COX17 and Ac-Lyn) produced low signals. […] Given the direct association of NatA with SFK N-termini at the ribosomal exit tunnel, however, we surmise that Nt-acetylation of SFKs in cells may proceed despite these unfavorable kinetic parameters.
The assay was performed essentially as described previously. Briefly, peptide substrates (Supplementary Table 1) were incubated with purified human NatA and acetyl-CoA; acetylation was quantified by CPM fluorescence (CoA detection), and Michaelis–Menten parameters were derived from 8-point 1:1 dilution series within the linear range (n = 4 independent enzymatic assays). Full buffer compositions, reagent concentrations, plate format, instrument settings, controls, and fitting procedures are provided in the Supplementary Methods and Tables. […]
301 Cloning, expression, and purification of human NatA
302 Human NatA (hNatA) full-length (FL) was cloned in a pFL vector expressing both
303 genes, NAA15 with a 6× C-term histidine tag (NAA15-6xHIS) and NAA102. The
304 expression was carried out in insect cells (Tnao38) for 72 h infected 1:20 with
305 baculovirus. Washed cell pellets were lysed by sonication in a lysis buffer containing 200
306 mM NaCl, 50 mM HEPES pH 8.0, 20 mM Imidazole, and 2 mM TCEP. The protein
307 purification was performed as a three-step purification, starting with an affinity nickel
308 column, followed by an ion-exchange column with a gradient of 50–300 mM NaCl, and
309 finished with size exclusion chromatography (SEC) using an S200 10/300 column. The
310 main peaks were collected, and the protein was concentrated in the SEC buffer (150 mM
311 NaCl, 50 mM HEPES pH 8.0, 1 mM EDTA). The purified hNatA was flash-frozen in
312 liquid nitrogen and stored at -80°C.
314 In vitro Nt-acetylation assay
315 The method has been described in detail previously2. Briefly, different peptides
316 (Supplementary Table 1) and concentrations (an eight-step, 1:1 dilution series for
317 Michaelis-Menten curves) as indicated were incubated with 20 nM hNatA and 80 µM Ac-
318 CoA in reaction buffer (50 mM HEPES pH 8.0, 0.5 mM EDTA, 0.005% CHAPS) for 60
319 (Src) or 120 min (Lyn), at RT in a 384-well microplate (Corning 4514) (n = 4).
320 Afterwards, the enzymatic reaction was stopped by adding 1:1 DMSO with 10 µM (final
321 concentration 5 µM) of the thiol reactive CPM (7-Diethylamino-3-
322 (4'Maleimidylphenyl)4-Methylcoumarin). After 1 h at RT, the readout was performed
323 with a Tecan Spark® Multimode Microplate Reader (excitation 390 nm, emission 479
324 nm). Background values at 0 µM peptide were subtracted, and control reactions omitting
325 NatA or Ac-CoA were performed. Dilution series of CoA incubated with 5 µM CPM were
326 used to generate a linear equation (y = 10.99*x + 81.06) to calculate acetylation velocities
327 for NatA-mediated peptide acetylation. […]

[1] abbreviates: starting peptide concentration 1 mM.
Setting [2] is: 20 nM NatA, 80 µM Ac-CoA, pH 8.0, RT, 120 min, peptide up to 1 mM, CPM fluorescence, mean ± s.d., n = 4, read-out: Km.
[3] abbreviates: conclusion: poor NatA substrates, read-out: Km, summary statement.
The mark [4] stands for this setting: original assay, peptide up to 160 μM.
[5] abbreviates: rounded values in Peer Review File, read-out: Km, as given in rebuttal.

Where two headings read alike, the source gives them in different places.

On to “GCIKSKGKDSKK [Ac-Lyn, Nt-peptide of Lyn (aa 1–10 + KKK-biotin), Nt-acetylated]”, for which the “Nt-acetylation by NatA (in words)” value under setting [1] is “low signals”.
As for “GCIKSKGKDSKK [Nt-free Lyn, Nt-peptide of Lyn (aa 1–10 + KKK-biotin), Nt-free]”, the Michaelis-Menten constant (Km) (commonly the substrate concentration at which the rate is half of its maximum) is, setting by setting: under setting [2], 411 ± 94 µM; under setting [3], > 100 µM; under setting [5], 411 µM. Further, the “Nt-acetylation by NatA (in words)” value is, setting by setting: under setting [4], “did not show Nt-acetylation under these conditions”; under setting [1], “detectable Nt-acetylation”.
In the same order, the values of “GCVQCKDKEAKK [Nt-free Fyn, Nt-peptide of Fyn, Nt-free]” are 235 ± 46 µM, > 100 µM, 235 µM, “did not show Nt-acetylation under these conditions” and “detectable Nt-acetylation”.
Consider “GSNKSKPKDAKK [Ac-Src, Nt-peptide of Src, Nt-acetylated]”, for which, under setting [4], the “Nt-acetylation by NatA (in words)” value is reported as “no detectable acetylation”.
